Like-named read-outs stand apart in the source and are kept apart here.
Key:
Format in all cases: cell-based
[1] = target: T1, recombinant rat GluN1/GluN2C (Rattus norvegicus, UniProt P35439+Q00961); assay: Two-electrode voltage-clamp (TEVC) recordings in Xenopus laevis oocytes, GluN1/GluN2C
T1 construct: expressed in transfected cells; host or cells: Xenopus laevis oocytes (Ecocyte) injected with in vitro transcribed cRNA
Method: (§1) Data are from between 3-26 oocytes from 2-5 frogs for each compound and receptor tested.
(§2) Two-electrode voltage-clamp recordings were performed in Xenopus laevis oocytes (Ecocyte) expressing recombinant rat GluN1/GluN2A, GluN1/GluN2B, GluN1/GluN2C, GluN1/GluN2D. cRNA was transcribed in vitro (Ambion), diluted with nuclease free water, and injected at a ratio of 1:2 GluN1:GluN2 (5-10 ng total cRNA). The oocytes were kept in Barth's solution comprised of (in mM) 88 NaCl, 5 Tris-HCl, 2.4 NaHCO3, 1 KCl, 0.84 MgSO4, 0.41 CaCl2, and 0.33 Ca(NO3)2 at pH 7.4 at 15-17° C. for two to five days before experiments. Oocytes were placed into a perfusion chamber and continually washed with recording solution containing (in mM) 90 NaCl, 1.0 KCl, 0.5 BaCl2, 0.005 EDTA, and 10 HEPES at pH 7.4 (23° C.). Voltage clamp recordings were conducted at a holding potential of −40 mV. All compounds were made as 20 mM stock solutions in DMSO and dissolved to reach the final concentration in recording solution. Final DMSO content was 0.05-0.5% (vol/vol). Some oocytes expressing GluN1/GluN2A were pretreated with […] BAPTA-AM for 10 minutes or injected with […] of 2 mM K-BAPTA to prevent gradual run-up of the current response.

[2] = target: T2, recombinant rat GluN1/GluN2A (Rattus norvegicus, UniProt Q00959); assay: Two-electrode voltage-clamp (TEVC) recordings in Xenopus laevis oocytes, GluN1/GluN2A; conditions: maximum potentiation, response without modulator = 100%
T2 construct: expressed in transfected cells; host or cells: Xenopus laevis oocytes (Ecocyte) injected with in vitro transcribed cRNA
T2 sequence (Q00959 23-1464, other chains not shown): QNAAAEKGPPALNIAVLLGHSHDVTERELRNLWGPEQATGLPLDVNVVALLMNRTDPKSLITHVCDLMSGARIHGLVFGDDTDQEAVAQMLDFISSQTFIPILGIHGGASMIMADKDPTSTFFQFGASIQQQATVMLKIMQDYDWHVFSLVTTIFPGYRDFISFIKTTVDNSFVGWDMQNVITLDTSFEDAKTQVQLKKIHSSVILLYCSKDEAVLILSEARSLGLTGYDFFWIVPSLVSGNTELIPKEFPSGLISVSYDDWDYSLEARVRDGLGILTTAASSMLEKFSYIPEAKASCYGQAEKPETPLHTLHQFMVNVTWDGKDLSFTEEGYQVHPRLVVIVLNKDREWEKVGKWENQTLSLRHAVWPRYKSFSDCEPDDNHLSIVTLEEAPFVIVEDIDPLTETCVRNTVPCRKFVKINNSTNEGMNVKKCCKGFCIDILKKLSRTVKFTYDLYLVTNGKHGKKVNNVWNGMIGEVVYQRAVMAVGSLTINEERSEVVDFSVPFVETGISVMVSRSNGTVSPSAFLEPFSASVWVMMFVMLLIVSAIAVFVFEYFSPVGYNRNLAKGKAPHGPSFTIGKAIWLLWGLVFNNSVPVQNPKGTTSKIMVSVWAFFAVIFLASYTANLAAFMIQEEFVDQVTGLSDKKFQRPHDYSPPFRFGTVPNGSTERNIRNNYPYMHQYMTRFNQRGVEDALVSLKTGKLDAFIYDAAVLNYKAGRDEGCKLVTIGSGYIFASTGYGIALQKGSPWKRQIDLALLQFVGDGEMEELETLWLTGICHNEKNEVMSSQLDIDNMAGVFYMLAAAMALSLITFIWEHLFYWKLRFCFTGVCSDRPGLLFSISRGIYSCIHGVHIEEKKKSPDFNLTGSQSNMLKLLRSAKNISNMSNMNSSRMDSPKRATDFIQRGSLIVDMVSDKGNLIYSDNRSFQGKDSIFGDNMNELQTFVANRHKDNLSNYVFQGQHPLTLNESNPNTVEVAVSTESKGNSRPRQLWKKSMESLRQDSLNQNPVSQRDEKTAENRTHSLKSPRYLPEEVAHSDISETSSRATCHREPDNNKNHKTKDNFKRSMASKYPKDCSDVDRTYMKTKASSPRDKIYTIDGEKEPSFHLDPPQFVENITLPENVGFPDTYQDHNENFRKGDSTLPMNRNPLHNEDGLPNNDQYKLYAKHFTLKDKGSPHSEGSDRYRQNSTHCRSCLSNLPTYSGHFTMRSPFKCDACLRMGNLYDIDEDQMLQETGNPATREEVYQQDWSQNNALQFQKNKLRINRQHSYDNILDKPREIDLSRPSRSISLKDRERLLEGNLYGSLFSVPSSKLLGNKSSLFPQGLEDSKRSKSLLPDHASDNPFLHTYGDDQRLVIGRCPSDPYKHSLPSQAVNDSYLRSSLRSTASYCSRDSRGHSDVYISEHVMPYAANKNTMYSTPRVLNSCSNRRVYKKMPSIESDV
Method: as §2

[3] = target: T3, recombinant rat GluN1/GluN2B (Rattus norvegicus, UniProt P35439+Q00960); assay: Two-electrode voltage-clamp (TEVC) recordings in Xenopus laevis oocytes, GluN1/GluN2B
T3 construct: expressed in transfected cells; host or cells: Xenopus laevis oocytes (Ecocyte) injected with in vitro transcribed cRNA
Method: as §1, §2

[4] = target: T4, recombinant rat GluN1/GluN2D (Rattus norvegicus, UniProt P35439+Q62645); assay: Two-electrode voltage-clamp (TEVC) recordings in Xenopus laevis oocytes, GluN1/GluN2D
T4 construct: expressed in transfected cells; host or cells: Xenopus laevis oocytes (Ecocyte) injected with in vitro transcribed cRNA
T4 sequence (Q62645 28-1323, other chains not shown): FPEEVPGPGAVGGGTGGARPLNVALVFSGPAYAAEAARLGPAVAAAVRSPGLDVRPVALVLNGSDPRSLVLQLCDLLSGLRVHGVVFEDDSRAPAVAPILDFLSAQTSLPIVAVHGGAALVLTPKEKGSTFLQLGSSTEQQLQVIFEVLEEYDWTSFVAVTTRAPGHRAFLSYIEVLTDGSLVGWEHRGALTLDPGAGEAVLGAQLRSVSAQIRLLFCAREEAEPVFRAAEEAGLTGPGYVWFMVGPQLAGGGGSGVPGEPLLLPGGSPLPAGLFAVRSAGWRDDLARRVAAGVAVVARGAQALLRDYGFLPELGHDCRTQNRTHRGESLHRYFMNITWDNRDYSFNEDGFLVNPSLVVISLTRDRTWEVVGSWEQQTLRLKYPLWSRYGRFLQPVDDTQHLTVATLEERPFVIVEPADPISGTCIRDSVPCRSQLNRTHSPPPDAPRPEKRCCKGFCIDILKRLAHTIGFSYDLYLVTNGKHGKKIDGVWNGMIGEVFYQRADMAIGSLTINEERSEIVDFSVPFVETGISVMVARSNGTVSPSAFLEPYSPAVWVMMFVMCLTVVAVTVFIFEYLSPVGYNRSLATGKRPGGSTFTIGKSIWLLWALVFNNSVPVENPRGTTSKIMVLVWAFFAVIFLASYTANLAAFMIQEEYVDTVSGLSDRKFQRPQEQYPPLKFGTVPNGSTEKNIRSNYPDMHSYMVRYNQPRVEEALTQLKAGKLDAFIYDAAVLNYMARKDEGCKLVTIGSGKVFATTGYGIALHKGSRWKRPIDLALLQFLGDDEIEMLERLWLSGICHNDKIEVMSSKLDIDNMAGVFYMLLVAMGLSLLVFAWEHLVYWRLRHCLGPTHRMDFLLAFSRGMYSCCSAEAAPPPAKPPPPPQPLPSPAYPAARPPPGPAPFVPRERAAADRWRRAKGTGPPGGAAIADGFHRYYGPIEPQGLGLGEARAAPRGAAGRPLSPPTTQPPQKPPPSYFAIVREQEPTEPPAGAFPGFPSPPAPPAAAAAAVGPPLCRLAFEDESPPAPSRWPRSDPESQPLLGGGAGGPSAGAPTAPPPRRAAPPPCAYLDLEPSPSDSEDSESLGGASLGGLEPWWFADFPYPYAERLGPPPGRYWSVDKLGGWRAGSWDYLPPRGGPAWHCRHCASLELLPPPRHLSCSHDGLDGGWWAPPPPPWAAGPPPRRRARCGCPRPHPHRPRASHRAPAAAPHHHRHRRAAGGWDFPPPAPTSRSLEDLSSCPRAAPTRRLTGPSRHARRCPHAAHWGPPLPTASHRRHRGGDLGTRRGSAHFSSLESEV
Method: as §1, §2

[5] = target: T5, recombinant rat GluN1/GluN2C (Rattus norvegicus, UniProt Q00961); assay: Two-electrode voltage-clamp (TEVC) recordings in Xenopus laevis oocytes, GluN1/GluN2C
T5 construct: expressed in transfected cells; host or cells: Xenopus laevis oocytes (Ecocyte) injected with in vitro transcribed cRNA
T5 sequence (Q00961 20-1237, other chains not shown): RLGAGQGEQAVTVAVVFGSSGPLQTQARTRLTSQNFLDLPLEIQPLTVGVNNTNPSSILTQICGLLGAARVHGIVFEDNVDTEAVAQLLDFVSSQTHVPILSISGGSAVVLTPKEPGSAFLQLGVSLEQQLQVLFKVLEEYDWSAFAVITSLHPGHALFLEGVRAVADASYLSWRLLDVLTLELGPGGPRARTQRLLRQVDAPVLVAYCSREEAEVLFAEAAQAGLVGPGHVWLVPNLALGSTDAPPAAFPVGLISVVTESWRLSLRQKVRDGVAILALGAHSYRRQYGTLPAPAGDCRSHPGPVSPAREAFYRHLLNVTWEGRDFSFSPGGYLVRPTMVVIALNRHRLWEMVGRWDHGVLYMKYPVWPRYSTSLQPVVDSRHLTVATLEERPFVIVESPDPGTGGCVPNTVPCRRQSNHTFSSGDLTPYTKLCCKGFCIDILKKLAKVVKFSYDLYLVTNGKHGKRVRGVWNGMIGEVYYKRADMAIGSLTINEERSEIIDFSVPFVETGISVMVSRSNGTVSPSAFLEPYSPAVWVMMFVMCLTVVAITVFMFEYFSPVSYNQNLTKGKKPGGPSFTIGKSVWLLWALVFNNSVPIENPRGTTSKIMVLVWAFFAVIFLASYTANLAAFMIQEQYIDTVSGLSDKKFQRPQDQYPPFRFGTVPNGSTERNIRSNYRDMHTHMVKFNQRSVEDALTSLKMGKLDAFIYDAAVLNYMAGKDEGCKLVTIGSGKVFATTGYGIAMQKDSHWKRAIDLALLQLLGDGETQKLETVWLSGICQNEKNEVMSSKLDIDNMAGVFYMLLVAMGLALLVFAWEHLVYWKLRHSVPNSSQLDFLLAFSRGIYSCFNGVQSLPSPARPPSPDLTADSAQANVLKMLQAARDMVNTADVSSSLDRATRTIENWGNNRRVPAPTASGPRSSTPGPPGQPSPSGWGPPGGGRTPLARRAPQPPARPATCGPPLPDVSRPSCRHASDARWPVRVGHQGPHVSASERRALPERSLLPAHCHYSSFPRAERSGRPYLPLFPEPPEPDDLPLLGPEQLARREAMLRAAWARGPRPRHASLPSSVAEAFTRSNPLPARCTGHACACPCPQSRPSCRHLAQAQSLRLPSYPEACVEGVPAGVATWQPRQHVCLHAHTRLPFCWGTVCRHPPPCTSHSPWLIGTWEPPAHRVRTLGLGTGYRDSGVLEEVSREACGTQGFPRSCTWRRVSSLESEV
Method: as §1, §2

[6] = target: T6, recombinant rat GluN1/GluN2B (Rattus norvegicus, UniProt Q00960); assay: Two-electrode voltage-clamp (TEVC) recordings in Xenopus laevis oocytes, GluN1/GluN2B
T6 construct: expressed in transfected cells; host or cells: Xenopus laevis oocytes (Ecocyte) injected with in vitro transcribed cRNA
Method: as §1, §2

[7] = target: T7, recombinant rat GluN1/GluN2D (Rattus norvegicus, UniProt Q62645); assay: Two-electrode voltage-clamp (TEVC) recordings in Xenopus laevis oocytes, GluN1/GluN2D
T7 construct: expressed in transfected cells; host or cells: Xenopus laevis oocytes (Ecocyte) injected with in vitro transcribed cRNA
T7 sequence (Q62645 28-1323, other chains not shown): as the sequence (Q62645 28-1323, other chains not shown) above
Method: as §1, §2

[8] = maximum potentiation, response without modulator = 100%, read-out: GluN2C EC50 (μM)/Max %: Max %
[9] = maximum potentiation, response without modulator = 100%, read-out: GluN2B EC50 (μM)/Max %: Max %
[10] = maximum potentiation, response without modulator = 100%, read-out: GluN2D EC50 (μM)/Max %: Max %
[11] = maximum potentiation, response without modulator = 100%

T1 sequence (Q00961 20-1237, other chains not shown): as the sequence (Q00961 20-1237, other chains not shown) above

In the case of `COc1ccc(OCC2c3ccc(OC(C)C)cc3CCN2C(=O)c2cccc(F)c2)cc1` (stereo not drawn) [1180-140], the Emax [1, 8] is reported as 304%, the “GluN2A EC50 (μM)/Max %: Max %” value [2] is reported as 159% and the Emax [3, 9] is reported as 450%. It also gave an Emax [4, 10] of 521%.
In the case of `CCOc1ccc(OCC2c3ccc(OC(C)C)cc3CCN2C(=S)c2ccc(F)c(Cl)c2)cc1` (stereo not drawn) [1180-165], the “GluN2C EC50 (μM)/Max %: Max %” value [5, 11] is reported as 162%, the “GluN2A EC50 (μM)/Max %: Max %” value [2] is reported as 191% and the “GluN2B EC50 (μM)/Max %: Max %” value [6, 11] is reported as 226%. The “GluN2D EC50 (μM)/Max %: Max %” value [7, 11] was 141%.
`COc1ccc(OCC2c3ccc(OC(C)C)cc3CCN2C(=S)c2cccc(F)c2)cc1` (stereo not drawn) [1180-166] was tested, and the Emax [1, 8] was 233%, the “GluN2A EC50 (μM)/Max %: Max %” value [2] was 179% and the Emax [3, 9] was 307%. For the same molecule, the Emax [4, 10] was 200%.
In the case of `COc1ccc(OC[C@@H]2c3ccc(OC(C)C)cc3CCN2C(=S)c2cccc(Cl)c2)cc1` [(S)-(−)-1180-163], the EC50 ([1]; fitted when potentiation at 30 μM exceeded 120%, Tables 3, 5-7, read-out: EC50 (max.) (μM %) GluN2C: fitted EC50) is reported as 0.5 µM, the Emax ([1]; percentage of the initial glutamate (100 μM) and glycine (30 μM) current, read-out: EC50 (max.) (μM %) GluN2C: fitted maximum response) is reported as 316% and the “I10 μM/Icontrol (mean ± SEM, %) GluN2C” value ([5]; 10 μM compound, Table 3) is reported as 302%. For the same molecule, the EC50 ([3]; fitted when potentiation at 30 μM exceeded 120%, Tables 3, 5-7, read-out: EC50 (max.) (μM %) GluN2B: fitted EC50) was 0.28 µM, the Emax ([3]; percentage of the initial glutamate (100 μM) and glycine (30 μM) current, read-out: EC50 (max.) (μM %) GluN2B: fitted maximum response) was 202% and the “I10 μM/Icontrol (mean ± SEM, %) GluN2B” value ([6]; 10 μM compound, Table 3) was 203%. For the same molecule, the EC50 ([4]; fitted when potentiation at 30 μM exceeded 120%, Tables 3, 5-7, read-out: EC50 (max.) (μM %) GluN2D: fitted EC50) was 0.5 µM, the Emax ([4]; percentage of the initial glutamate (100 μM) and glycine (30 μM) current, read-out: EC50 (max.) (μM %) GluN2D: fitted maximum response) was 313% and the “I10 μM/Icontrol (mean ± SEM, %) GluN2D” value ([7]; 10 μM compound, Table 3) was 299%.

Reference: patent publication US10647679B2, “N-methyl-D-aspartate receptor (NMDAR) potentiators, pharmaceutical compositions, and uses related thereto” (Emory University, priority 2015, dated 2020)
